Results reported in US20080299060A1, “Pharmaceutical Composition for the Treatment of Nail Diseases” (TLT MEDICAL LTD., priority 2006, published 2008).

Experiment: In-vitro nail permeation assay (Franz type diffusion cells)
Format: in vitro ADME, human
Conditions: for Mean value of terbinafine concentration in the 5 mL receptor chamber of the Franz cell, Day 3 / Mean value of terbinafine concentration in the 5 mL receptor chamber of the Franz cell, Day 5: n=3
Description: Permeation fluxes of active substances, determined from nail permeation assays, are used to predict the efficacy of the active substances in a clinical situation. A permeation assay similar to the one reported by Franz (T. J. Franz, Dermatology, 184, 18-20, 1992) was used to investigate the applicability of the present invention to the treatment of onychomycosis and, in particular, to evaluate the permeation fluxes of a terbinafine containing pharmaceutical composition and a protective layer in laser pre-treated human cadaver great toenails. The experimental setup emulates the clinical situation where the pharmaceutical composition remains liquid for an extended period of time inside the nail holes in the case of laser pretreated nails to maximize the diffusion of the terbinafine into the nail.
Human cadaver great toenails selected for the tests were soaked in physiological buffer solution for several hours before starting the assay. Nails were prepared for the assay by removal of epidermal residues on the ventral side. Round nail discs of 16 mm in diameter were punched. […] Nails were masked on the dorsal side by a silicon mounting ring leaving a nail area of 10 mm in diameter where the nails were exposed to the pharmaceutical composition and the protective layer.
Three groups of nail samples were investigated.
Group 1: Untreated nail samples were used in this group which is the control group. These nails were exposed to 25 μL of a lacquer containing 9% w/w terbinafine once a day.
(§1) Group 2: In this group perforated nails were used. These nails were exposed to 25 μL of a 10% w/w terbinafine in ethanol solution once a day. After the application of the 10% w/w ethanolic solution to these nails, nails were covered with 25 μL of a lacquer containing 9% w/w terbinafine to form the protective layer according to the present invention.
as §1, with “3:” for “2:”, “nails, these” for “nails,”, “without” for “containing 9% w/w”
Franz type diffusion cells made of glass were used in the assays having a volume of ca. 5 mL using demineralized water as receptor buffer. Nail samples were fixed on the Franz cells with sealing silicone and Teflon discs pressed with a metallic spring loading system. In this way the ventral sides of the nails were in contact with demineralized water in the cell while the dorsal sides were in contact with the pharmaceutical formulations and protective layer according to Table 1. Diffusion cells were kept at 32° C. during the permeation assays.
Cleaning of the nail sample and dissolution of previous layers of pharmaceutical composition and protective layers were performed prior to every reapplication of the pharmaceutical composition and the protective layer. For this purpose 100 microliters of dissolvent were applied to every nail sample. Subsequently, the nail samples were rubbed with a cleaning brush to ensure an exhaustive cleaning and then were dried with a cotton swab to remove with the dissolvent also the old components of the pharmaceutical solution and the protective layer. 25 microliters of the pharmaceutical composition were then applied to the exposed nail area and distributed with the application brush.
Samples of receptor fluid were collected at various time points and analyzed by liquid chromatography and mass spectroscopy. The removed sample volume was replaced by demineralized water. This dilution effects were accounted in the final determination of the permeation fluxes.

[1] = Group 1 (control): untreated nails, 9% w/w terbinafine lacquer once a day, dissolvent ethanol, 32° C.
[2] = Group 2: laser pretreated nails (400 partial orifices/cm^2), 10% w/w terbinafine in ethanol once a day, protective layer 9% w/w terbinafine lacquer
[3] = Group 3: laser pretreated nails (400 partial orifices/cm^2), 10% w/w terbinafine in ethanol once a day, protective layer lacquer without terbinafine

Permeation Fluxes (Group 1 (control): untreated nails, 9% w/w terbinafine lacquer once a day, dissolvent ethanol): 4.34 ng/cm^2/h | Mean value of terbinafine concentration in the 5 mL receptor chamber of the Franz cell, Day 3 [1]: 82.4 ng/mL | Mean value of terbinafine concentration in the 5 mL receptor chamber of the Franz cell, Day 5 [1]: 115.1 ng/mL | increase in the permeation fluxes as compared to the control group (group 1) (Group 2 (protective layer also contains terbinafine) vs group 1): 34 fold | Mean value of terbinafine concentration in the 5 mL receptor chamber of the Franz cell, Day 3 [2]: 305.2 ng/mL | Mean value of terbinafine concentration in the 5 mL receptor chamber of the Franz cell, Day 5 [2]: 1432.9 ng/mL | Permeation Fluxes (Group 2: laser pretreated nails, 10% w/w terbinafine in ethanol once a day, protective layer 9% w/w terbinafine lacquer): 149.6 ng/cm^2/h | increase in the permeation fluxes as compared to the control group (group 1) (Group 3 (protective layer does not contain terbinafine) vs group 1): 5 fold | Mean value of terbinafine concentration in the 5 mL receptor chamber of the Franz cell, Day 3 [3]: 94.5 ng/mL | Mean value of terbinafine concentration in the 5 mL receptor chamber of the Franz cell, Day 5 [3]: 272.6 ng/mL | Permeation Fluxes (Group 3: laser pretreated nails, 10% w/w terbinafine in ethanol once a day, protective layer lacquer without terbinafine): 23.6 ng/cm^2/h
Compound: CN(C/C=C/C#CC(C)(C)C)Cc1cccc2ccccc12 [terbinafine]
